Data published in patent publication US20250144247A1, “FORMULATIONS TO ENHANCE THE DELIVERY OF GENE THERAPY VECTORS” (priority 2023, published 2025).

Assays:
measles virus (MeV) = experiment: Measles virus (MeV) infection of HAE; type: cell-based, human; details: wild-type MeV, NaCl (4%)
Procedure: […] After infection, virus inoculums removed. […] After infection, basolateral-infected cultures were returned upright. All MeV infections took place for 4 hours in 37° C. at an MOI of 1 with a total inoculum of 50 μL.

[1] = tested on: human airway epithelial cells (HAE); type: cell-based
[2] = tested on: newborn pig tracheal explants; experiment: Pig tracheal explant transduction ex vivo; details: NaCl 5%, apical 2 hours
Procedure: 0.25 cm^2 tracheal explants from newborn pigs were cultured on Surgifoam (1972, Ethicon, Raritan, NJ) for 3-5 days prior to transduction. Ad5-mcherry (1×10^9 TU), AAVH22-GFP (2×10^10 vg), and GP64 HIV-GFP (1.75×10^7 TU) were applied with or without NaCl (5%) to the apical surface of the trachea by inverting the trachea onto a tissue culture dish containing the viral solution for 2 hours then returned to an upright position on Surgifoam. 5 days post-transduction, tracheal explants were mounted on a microscope slide and imaged for fluorescent expression using confocal microscopy. Expression was quantified using Image J (FIJI) by measuring fluorescence intensity per high power field.
Using freshly excised newborn pig tracheal explants maintained on Surgifoam, Ad-GFP or AAVH22-GFP (a pig-tropic AA V capsid)±NaCl (5%) was applied to the apical surface by inverting the tissue in a culture dish for 2 hours. One week later, tissues were fixed and imaged by confocal microscopy. […] Fluorescence was quantified by transduction area per high power field.

[3] = tested on: cultured cells on plastic; experiment: Gene transfer of cultured cells on plastic with hypertonic saline; type: cell-based
[4] = tested on: human airway epithelial cells (HAE); experiment: Scanning electron microscopy of HAE surface; details: NaCl 3.6% for 2 hours vs no NaCl control

[Cl-].[Na+] [NaCl, sodium chloride]
MeV infection following apical application (measles virus (MeV)): occurred only in the presence of NaCl
transduction of primary human CF cultures, GP64 HIV-GFP ([1]; MOI=50, NaCl formulation): remarkable levels of transduction
GFP expression, GP64 HIV vector ([1]; non-CF HAE, 3.5, 4 or 4.5% NaCl, MOI=50): dose-dependent increase in GFP expression
transduction with Ad and AAVH22 (fluorescence per high power field) [2]: markedly enhanced
effect on cultured cells on plastic [3]: lifting of the cells
cell surface integrity and ciliation by SEM [4]: no overt physical differences
